Patent publication US7122668B2, “Platinum complexes and their use in therapy” (priority 2002, dated 2006)
Where two headings read alike, the source gives them in different places.

Legend:
A2780 = experiment: Microculture tetrazolium (MTS) cell survival assay; assay type: cell-based; conditions: 24 hours incubation
Procedure: (§1) Cytotoxicity of the synthesized complexes was also tested by the MTS method^(21). Accordingly, the compounds were incubated for 24 hours with the corresponding cell lines and the cell survival in compound-treated cultures was evaluated.
(§2) The complexes were incubated for 24 hours with the above mentioned cell lines and the cell survival in compound-treated cultures was evaluated by the (microculture tetrazolium) MTS method as previously reported.

41M = experiment: Microculture tetrazolium (MTS) cell survival assay; assay type: cell-based; conditions: 24 hours incubation
Procedure: as §1, §2

CH1cisR = experiment: Microculture tetrazolium (MTS) cell survival assay; assay type: cell-based
Procedure: as §1, §2

A2780cisR = experiment: Microculture tetrazolium (MTS) cell survival assay; assay type: cell-based
Procedure: as §1, §2

41McisR = experiment: Microculture tetrazolium (MTS) cell survival assay; assay type: cell-based
Procedure: as §1, §2

CH1 = experiment: Microculture tetrazolium (MTS) cell survival assay; assay type: cell-based; conditions: 24 hours incubation
Procedure: as §1, §2

C-26 colon carcinoma = experiment: In vivo antitumor efficacy; design: species or system BALB/C mice; conditions: 5 mg/kg, three injections at weekly intervals from day 3 after i.p. tumor inoculation
Procedure: Female BALB/C mice (in the weight range of 17–20 g) were injected i.p. with 1*10^6 C-26 colon carcinomas.
Treatment began at day 3 after tumor inoculation and was repeated twice for a total of three injections at weekly intervals.
Female BALB/C mice (in the weight range of 17–20 gr) were injected i.p. with 1*10^6 C-26 colon carcinomas.
Treatment was as performed according to the schedule described above.

caspase-3 in C-26 cells = experiment: EnzChek Caspase-3 assay; assay type: cell-based, human; conditions: 4.5 μM complex, cisplatin 1.5 μM, 5 or 16 hrs
Excerpt: (§3) (2) By the EnzChektm Caspase-3 Assay Kit (Molecular probes, Eugene, Oreg.). This Kit allows the detection of apoptosis by assaying for increases in caspase-3 and other DEVD-specific protease activities (e.g., caspase-7). The basis for the assay is rodamine 110 bis-(N-CBZ-aspartil-L-glutarnyl-L-valyl-aspartic acid amide) (Z-DEVD-R110). This substrate is a bisamide derivative of rhodamine 110(R110) containing DEVD peptides covalently linked to each of R110's amino groups. Upon enzymatic cleavage, the non-fluorescent bisamide substrate converted to the fluorescent R110, which can be quantified by fluorescence microplate reader using excitation at 485±10 nm and emission detection at 535±10 nm.
(§4) (12) (5 μM and 7.5 μM, respectively) for 5 or 16 hr. Both “induced” and “control” cells were then harvested and lysed. Enzyme reactions were performed in 96-well plates with 50 μg of cytosolic proteins (55 minutes of incubation) and with a final concentration of 25 μM Z-DEVD-R110 substrate as described in the kit protocol.

[1] = test system: caspase-3 in OV-1063 cells; experiment: EnzChek Caspase-3 assay; assay type: cell-based, human; conditions: cisplatin 2 μM, 5 or 16 hrs
Excerpt: as §3, §4

C-26 cells [2] = experiment: Determination of Pt-DNA adducts by FAAS; assay type: cell-based, human; conditions: C-26, 24 hr
Procedure: (§5) Cells were seeded for 48 hr before one of the drugs was added to the culture medium. After 24 hr of exposure, the complexes were removed and the cells washed twice with ice-cold PBS and pelleted. DNA from platinum-containing material (2*10^6 cells) was extracted from the cell pellet by QIAamp DNA Blood Kit (QIAGEN, Germany) according to the manufacture instructions. DNA yield was determined by measuring the concentration of DNA in the eluate by absorbance at 260 nm.

OV-1063 cells [3] = experiment: Determination of Pt-DNA adducts by FAAS; assay type: cell-based, human; conditions: OV-1063, 24 hr
Procedure: as §5

OV-1063 cells [4] = experiment: Methylene blue (MB) assay of cell survival; assay type: cell-based, human; conditions: mean ± SD
Procedure: (§6) A human ovarian carcinoma cell line (OV-1063), established at the Hadassah University hospital and human colon carcinoma cell line (C-26) were maintained in RPMI-1640 medium supplemented with 10% FCS, antibiotics and glutamine. All culture medium components were purchased from Biological Industries (Beit-HaEmek, Israel). Both cell lines were maintained at 37° C. in a water-jacketed CO2 incubator.
(§7) Cytotoxicity of the synthesized complexes was tested by the methylene blue (MB) staining assay^(19). A fixed number of exponentially growing cells in 200 μl medium were plated in 96-microwell, flat-bottomed plates. For each of the complexes tested, 4 well were used. Following 24 hr in culture, 20 μl of different concentration of the complexes were added to each well containing untreated cells. Normal saline was added to the controls. Cells were exposed to complexes for 4, 24, or 72 hr. At the end of exposure for a fixed time interval, the treated cells as well as parallel control cells were washed and incubation was continued in fresh medium until termination of the experiment. Following 72 hr of growth, cells were fixed by adding 50 μl of 2.5% of glutaraldehyde to each well for 15 min. Fixed cells were rinsed 10 times with fresh de-ionized water and once with borate buffer (0.1 M, pH=8.5), dried and stained with MB (100 μl of 1% solution in 0.1 M borate buffer, pH=8.5) for 1 hr at room temperature. Stained cells were rinsed thoroughly with de-ionized water to remove any non-cell-bound die and then dried. The MB bound to the fixed cells was extracted by incubation at 37° C. with 200 μl of 0.1N HCl for 1 hr, and the net optical density (OD) of the die in each well was determined by a plate spectrophotometer (Labsystems Multyskan BICHROMATIC, Finland) at 620 nm.

calf thymus DNA = experiment: DNA binding (calf thymus DNA platination); conditions: for ΔTm, 0.01M Na+ / ΔTm, 0.2 M / ΔΔεmax, maximum of the positive CD band at around 275 nm: rb = 0.05; for ΔΔεmax, maximum of the positive CD band at around 275 nm: difference between control and platinated DNA
Procedure: The formation of calf thymus DNA platination was also examined. To this end, calf thymus DNA was incubated with different compounds (Table 3) in which the following parameters were determined: […]

C-26 cells [5] = experiment: Platinum complex intracellular accumulation (FAAS); assay type: cell-based, human; conditions: C-26, 24 hr
Procedure: (§8) Cells were seeded for 48 hr before one of the complexes was added to the culture medium. After 24 hr of exposure, the complexes were removed and the cells washed twice with ice-cold PBS and pelleted. The cells (1*10^6) were dried and mineralized by heating for 10 min in 65% HNO3 (BDH, England)^(22). Samples were dissolved in de-ionized water and each sample was measured at two different dilutions by flameless Zeeman atomic absorption spectrometer (FAAS). The calibration curves included 5 standards of K2PtCl4 stock solution with concentrations ranging from 50 to 250 ng platinum per ml. Platinum content was expressed as picomoles platinum per 1*10^6 cells.
(§9) The Pt content associated with the cells was measured by Atomic Absorption Spectroscopy (AAS).

OV-1063 cells [6] = experiment: Platinum complex intracellular accumulation (FAAS); assay type: cell-based, human; conditions: OV-1063, 24 hr
Procedure: as §8, §9

C-26 cells [7] = assay type: cell-based; conditions: C-26 cells, mean ± SD
Procedure: as §6, §7

[8] = cited from earlier work
[9] = test system: Ubiquitin and Heart Myoglobin; conditions: 1:1 reaction, 1–2 mM, 10 mM phosphate buffer, pH 6.4, 37° C.
Procedure: Since most platinum(II) derivatives which are administered intravenously become protein bound within 24 hr, the binding kinetics of two model proteins, Ubiquitin (MW 8565) and Heart Myoglobin (MW 16951), to Pt complexes was determined. To this end, a 1:1 reaction between the platinum complexes and the proteins were carried out at 1–2 mM concentrations, in 10 mM phosphate buffer, pH 6.4 at 37° C. Protein binding kinetics were measured directly on the reaction mixtures, by Electrospray Ionization Mass Spectrometry (ESI-MS).

In vivo toxicity = experiment: In vivo toxicity; design: species or system BALB/C mice; conditions: 5 mg/kg, i.v., three times at weekly intervals
plasmid pS16-hGH DNA = experiment: Determination of Pt-DNA adducts by EtBr fluorescence; assay type: binding; conditions: DNA modified 24 hr
Procedure: A plasmid (4.8 kbp) containing a gene coding for human growth hormone, plasmid pS16-hGH, was prepared as previously described^(23). The freshly prepared DNA was analyzed by agarose gel (1%) electrophoresis using post-staining with SYBR Green I fluorescent dye (Molecular Probes, Eugene, Oreg.). […] The ratio of absorbance at 260 nm to that at 280 nm was always between 1.8 and 1.9.
DNA were modified by the platinum complexes in 10 mM NaClO4 (pH 7.0) at 37° C. in the dark for 24 hr. Measurements of EtBr fluorescence were performed on an LS50B luminescence spectrometer (Perkin Elmer, Norwalk, Conn.). Fluorescence measurements of DNA modified by platinum in the presence of EtBr were performed using the excitation wavelength of 546 nm (slit 10 run) and emission wavelength of 590 nm (slit 10 nm) at 25° C. The concentrations were 0.01 mg/ml for DNA and 0.04 mg/ml for EtBr, which corresponded to the saturation of all intercalation sites of EtBr in DNA.
EtBr, as the fluorescent probe, was used to distinguish between perturbations induced in DNA by adducts of platinum (II) compounds^(14). Binding of EtBr by intercalation is blocked in a stoichiometric manner by formation of the bifunctional adducts, as of Cis-Pt, which results in a loss of fluorescence intensity. On the other hand, formation of monofunctional adducts results only in a slight decrease of EtBr fluorescence.

[10] = 4 h exposure, read-out: IC50, 4 h
[11] = 24 h exposure, read-out: IC50, 24 h
[12] = 72 h exposure, read-out: IC50, 72 h
[13] = listed as trans-[PtCl2(NH3)(pip)]

## N.N.[Cl][Pt][Cl] [Cisplatin, cis-[PtCl2(NH3)2], reference compound]
A2780
  IC50: 2.2 µM
41M
  IC50: 26 µM
CH1cisR; 24 hours incubation, MTS
  IC50: 23 µM
CH1cisR; CH1cisR/CH1
  resistance factor (IC50 resistant/IC50 sensitive): 3.8
A2780cisR; 24 hours incubation, MTS
  IC50: 38 µM
A2780cisR; A2780cisR/A2780
  resistance factor (IC50 resistant/IC50 sensitive): 17.3
41McisR; 41McisR/41M
  resistance factor (IC50 resistant/IC50 sensitive): 4.1
41McisR; 24 hours incubation, MTS
  IC50: 107 µM
CH1
  IC50: 6 µM
C-26 colon carcinoma
  Increase in life span: 108%
  Survival: 24 ± 5 days
caspase-3 in C-26 cells
  caspase-3 fluorescent signal: No fluorescent signal
[1]
  caspase-3 fluorescent signal: No fluorescent signal
C-26 cells [2]
  Pt-DNA adducts: 149 pmol Pt/50 μg DNA
OV-1063 cells [3]
  Pt-DNA adducts: 107 pmol Pt/50 μg DNA
OV-1063 cells [4]; [10]
  IC50: 2 ± 0.5 µM
OV-1063 cells [4]; [11]
  IC50: 0.7 ± 0.2 µM
OV-1063 cells [4]; [12]
  IC50: 0.5 ± 0.2 µM
Calf thymus DNA
  % IEC/adduct, frequency of interstrand crosslinks: 6%
  unwinding angle per adduct: 13°
  ΔTm, 0.01M Na+: −2.6 0.C
  ΔTm, 0.2 M: −4.0 0.C
  ΔΔεmax, maximum of the positive CD band at around 275 nm: 1.27
Calf thymus DNA; 10 mM NaClO4, 37° C., ri = 0.08, differential pulse polarography
  t1/2 half time of the binding to calf thymus DNA: 1.67 h
C-26 cells [5]
  Penetration to cells: 2244 pmol Pt/1 * 10^6 cells
OV-1063 cells [6]
  Penetration to cells: 194 pmol Pt/1 * 10^6 cells
C-26 cells [7]; [10]
  IC50: 1.5 ± 1.3 µM
C-26 cells [7]; [11]
  IC50: 0.6 ± 0.1 µM
C-26 cells [7]; [12]
  IC50: 0.2 ± 0.2 µM

## trans-[PtCl(PyAc—N,O)(NH3)]
[8]
  solubility in water: 4 to 5 mM

## C1CCNCC1.N.[Cl][Pt][Cl] [Complex 1, Trans-[PtCl2(NH3)(piperidine)]]
Calf thymus DNA; [13]
  % IEC/adduct, frequency of interstrand crosslinks: 26%
  unwinding angle per adduct: 52.8°
  ΔTm, 0.01M Na+: +7.6 0.C
  ΔTm, 0.2 M: −1.9 0.C
  ΔΔεmax, maximum of the positive CD band at around 275 nm: 0.15
[9]
  binding to the proteins: binds rapidly

## C1CCN(C2CCNCC2)CC1.N.[Cl][Pt][Cl] [Complex 3, Trans-[PtCl2(NH3)(4-piperidino-piperidine)]]
In vivo toxicity
  toxicity (animal weight and survival): non-toxic
C-26 colon carcinoma
  Increase in life span: 108%
  Survival: 24 ± 3 days
Plasmid pS16-hGH DNA
  decrease of EtBr fluorescence intensity by DNA adducts: The best adduct
